From paper PMC8412337, “Alpha-single chains of collagen type VI inhibit the fibrogenic effects of triple helical collagen VI in hepatic stellate cells” (PLoS ONE, 2021)

Legend:
[1] = system: primary rat HSC; test: Cell Death Detection ELISA (oligonucleosomal DNA fragments); format: cell-based; conditions: OD of sample divided by OD of 10% FBS group, three independent experiments
Method: 10^5 cells were seeded in 6-well plates and treated with starving medium or medium plus CI, CVI or 10% FBS. After 24 or 48 h floating and adherent cells were pooled, and lysed with 500 μl of 1% SDS, 10 mM Tris, pH 7.4 (lysis buffer), for 30 min at 4°C. Lysed cells were transferred to 1.5 ml Eppendorf tubes and centrifuged at 13,000 rpm for 20 min, to separate low molecular weight DNA (oligonucleosome-sized fragments derived from apoptotic cells) from high molecular weight DNA (from viable cells). 400 μl of the supernatant containing oligonucleosomes were transferred to another Eppendorf tube and diluted 1:5 with lysis buffer. 100 μl aliquots were used for the Cell Death Detection ELISA, which was performed according to the manufacturer’s instructions (Boehringer Mannheim, Germany). In brief, antibodies against histones were coated onto 96-wells, 100 μl lysate-samples containing oligonucleotides and histones were added and incubated for one hour. After washing, wells were incubated with anti-double strand DNA antibody coupled to peroxidase for one hour. After reaction with peroxidase substrate, absorbance was measured at 405 nm using an ELISA reader. Background values (lysis-buffer alone) were subtracted, and results are shown as enrichment factor [enrichment factor: OD (optical density) of the sample (apoptotic cells) divided by the OD of the corresponding control (viable cells, 10% FBS-group). A defined positive control was prepared using a hypertonic buffer, containing 10 mM Tris, 400 mM NaCl, 5 mM CaCl2 and 10 mM MgCl2, instead of starving medium.

[2] = system: Bax and Bcl-2 in activated HSCs; test: Western-blot analysis of Bax and Bcl-2; format: cell-based, rat; conditions: 24 hours culture after serum starvation; densitometry; three independent experiments
Method: Dislodged cells were centrifuged at 800 x g/10 min and lysed with 100 μl lysis buffer. The protein concentration was determined using NanoOrange® Protein Quantitation Kit (Life Technologies) according to the manufacturer’s instructions. Briefly, protein solutions were mixed with the diluted NanoOrange reagent in 1.5 ml polypropylene tubes and heated at 95°C for 10 min in a thermomixer (Peqlab, Erlangen, Germany). Tubes were centrifuged and 200 μl of each sample were transferred to a black 96 well flat-bottom plate (Greiner BioOne, Frickenhausen, Germany). The emitted fluorescence was assessed at 570 nm in a SpectraMax Gemini EM (Molecular Devices, Biberach an der Riß, Germany). Protein concentrations were calculated from a bovine serum albumin standard curve. Equivalent amounts (10–50 μg) of protein were used in […]. Sample buffer (1:1) was added and the aliquots (20 μl final volume) were boiled for 5 min and subjected to 12% SDS-PAGE. After blocking for 1 h at room temperature in 10 mmol Tris-HCl, pH 7.5, 100 mmol NaCl, containing 0.1% Tween 20 and 3% bovine serum albumine (BSA), nitrocellulose-membranes were incubated either with polyclonal rabbit anti-rat antibodies to Bax (1:1000, sc-493), Bcl-2 (1:1000, sc783, both Santa Cruz, Santa Cruz, USA), α-actin (1:4000, A2547, Sigma) or β-actin (1:10,000, A5441, Sigma). Membranes were then washed in 10 mmol Tris-HCl, 100 mmol NaCl, 0.1% Tween 20, pH 7.5, and incubated with anti-rabbit IgG coupled to peroxidase (1:1000, A4416, Sigma) for 1 h at room temperature or directly developed (RC20H). Bands were detected with the ECL chemiluminescence reagent (Amersham-Pharmacia, Freiburg, Germany). After stripping in 0.1 M glycin-HCl, pH 2, for 20 min at room temperature, membranes were reprobed with appropriate primary and secondary antibodies. Band intensities were analyzed by densitometry and normalized to β-actin.

[3] = system: primary rat HSCs; test: [3H]-thymidine incorporation, de-novo DNA synthesis; format: cell-based; conditions: primary rHSCs; CVI at 10 μg/ml; within 24 hours; three independent experiments
[4] = system: primary rat HSC; test: FACS analysis of apoptosis (propidium iodide DNA content); format: cell-based; conditions: serum-starved primary rat HSC; text: within 24 hours, Fig 1C legend: 48 h; propidium iodide; three independent experiments
Method: Activated HSC (third passage) were serum starved for 24 h in standard medium without FBS (starving medium), followed by dissociation with 500 μl 0.05% trypsin-EDTA (Biochrom, Berlin, Germany) and neutralization with 30 ml starving medium containing 1 g/l soybean trypsin inhibitor and 1 g/l ovalbumin. Alternatively, cells were scraped carefully with a cell-scraper (Costar, Cambridge, MA, USA) to exclude any potential effect of trypsin. After centrifugation at 800 x g for 10 min, cells were washed twice with 20 ml PBS (w/o Ca^2+, Mg^2+; Biochrom, Berlin, Germany), resuspended in starving medium and plated at a density of 1.5-2x10^6 in 1.7 ml starving medium in 6-well plates (NUNC, Wiesbaden, Germany). Cells were then treated with starving medium, soluble CI or CVI (both at a final concentration of 30 mg/l), or 10% FBS. For quantification of spreading, cells that had attached were counted 12 hours after plating and spreading efficiency was determined as percentage of plated cells in each group. De-novo DNA synthesis and apoptosis were assessed by morphological criteria, Cell death detection ELISA and FACS analysis as described below. […] After blocking the cells 1h with DMEM+1% FBS, the cells were incubated with primary antibodies against a-actin (Sigma-Aldrich, Taufkirchen, Germany, #A2547; dilution 1:200) and GFAP (Sigma-Aldrich, #G9269; dilution 1:20) followed by a washing step with PBS and the incubation with fluorescence-labeled secondary antibodies (Alexa Fluor 546 & Alexa Fluor 488, Molecular Probes, Eugene, USA, #A11030 & #A11034; dilution 1:100). […] Cells were analyzed by fluorescence microscopy (Zeiss, Jena, Germany; Kodak Ektachrome P1600 and a quantitative staining analysis was performed using Image J software (version 1.50i; National Institutes of Health, Bethesda, […], USA).
10^5 of freshly set cells were treated with starving medium, CI, CVI or 10% FBS for 24 or 48 hours as described before. […] Fixed cells were stained with propidium iodide (50 mg/l) in a final volume of 1 ml before being subjected to fluorescence activated cell sorting (FACS) analysis.

[5] = system: CVI-induced proliferation of CFSC; test: Inhibition of CVI-induced proliferation by α3(VI)-derived 30-mer peptides, [3H]-thymidine incorporation; format: cell-based, rat; conditions: serum-starved CFSC; 100-fold molar excess of 30-mer peptide compared to CVI; 24 h; n = 4; p<0.05
Method: (§1) 5x10^3CFSC in 100 μl 10% FBS were seeded into a 96-well flat-bottom tissue culture plate (Nunc, Roskilde, Denmark). After 24 hours, medium was completely removed, and cells were rinsed with 200 μl phosphate-buffered saline and 100 μl standard medium containing only 0.25% FBS were added. Cells were cultured for additional 24 h prior to treatment. Synchronized microcultures in 96-well plates were treated for 2 hours in reduction medium. When appropriate, the reduction medium was supplemented with 40 mg/l of α1(VI), α2(VI) or α3(VI). Then, 30 mg/l CVI or CI as control were added and cells were incubated for 24 h after which [^3H]-thymidine was added for additional 24 h. To assess effects of α3(VI)-derived 30-mer peptides on CVI-induced proliferation of CFSC, the reduction medium was supplemented with a 100-fold molar excess of the respective 30-mer peptides compared to CVI. [^3H]-thymidine incorporation was measured as described before. Cells treated with 150 mmol/l HAc or grown in 10% FBS served as negative and positive controls, respectively. During the last 4 hours of treatment, all cultures received 18.5 kBq [^3H]-thymidine (Amersham, Freiburg, Germany). Cells were fixed with 10% trichloroacetic acid and lysed by 200 mmol/l NaOH. After neutralization with 800 mmol/l HCl, lysates were collected to a glassfibre mat and the de-novo DNA synthesis was assessed by liquid scintillation (LKB Wallac, Bromma, Sweden) and the radioactive decay was counted (for) a minute (cpm).

[6] = system: CFSC; test: Fibrosis-associated gene expression, quantitative real-time PCR; format: cell-based, rat
Method: 30 mg/l CVI, 133 mg/l of the monomeric alpha chains of CVI and/or TGF-β (2 ng/ml) were added after 24 h. […] Reverse transcribed complementary DNA templates were amplified by quantitative real-time polymerase chain reaction (PCR; Roche Diagnostics, Mannheim, Germany) using fluorogenic probes labeled with 6-carboxy-fluorescein and 6-carboxy-tetramethylrhodamin (Sigma- Genosys, Steinheim, Germany) and primer pairs (Invitrogen, Karlsruhe, Germany) specific for fibrosis-associated genes (for sequences see S2 Table). Gene expressions were normalized to glyceraldehyde phosphate dehydrogenase (GAPDH).

[7] = system: 10% FBS-induced proliferation of HSC; test: Inhibition of 10% FBS-induced proliferation by alpha single chains, [3H]-thymidine incorporation; format: cell-based, rat; conditions: cells grown in 10% FBS, Fig 4A
Method: as §1

[8] = system: CVI-induced proliferation of HSC; test: Inhibition of CVI-induced proliferation by alpha single chains, [3H]-thymidine incorporation; format: cell-based, rat; conditions: 40 mg/l single chain, then 30 mg/l CVI; 24 h; primary rHSCs, n = three; Fig 4A legend: CFSC, n = 4
Method: as §1

[9] = CFSC, medium containing 0.2% FBS, S3 Fig, one out of two independent experiments

CI: Human collagen I isolated from placentas by pepsin digestion; served as a control
enrichment factor of oligonucleosomal fragments ([1]; after 24 hours): 5 | enrichment factor of oligonucleosomal fragments ([1]; after 48 hours): 30 | Bax to Bcl-2 ratio [2]: 7.0 | de-novo DNA synthesis ([3H]-thymidine incorporation) [3]: little DNA incorporation | percentage of apoptotic cells (FACS) [4]: 80%

DGDKGLPGSSGEKGNPGRRGDKGPRGEKGE [A5, α3(VI)-derived synthetic 30-mer peptide]
inhibition of CVI-induced proliferation [5]: no or weaker inhibitory activities

DGYRGYPGDEGGPGERGPPGVNGTQGFQGC [A2, α3(VI)-derived synthetic 30-mer peptide]
inhibition of CVI-induced proliferation [5]: no or weaker inhibitory activities

DKGPRGEKGERGDVGIRGDPGNPGQDSQER [A6, α3(VI)-derived synthetic 30-mer peptide]
inhibition of CVI-induced proliferation [5]: no or weaker inhibitory activities

GAPGERGRTGPLGRKGEPGEPGPKGGIGNP [B6, α3(VI)-derived synthetic 30-mer peptide]
inhibition of CVI-induced proliferation [5]: no or weaker inhibitory activities

GFPGEKGEVGEIGLDGLDGEDGDKGLPGSS [A4, α3(VI)-derived synthetic 30-mer peptide]
inhibition of CVI-induced proliferation [5]: strong growth inhibitory effects

GIRGRRGNSGPPGIVGQKGRPGYPGPAGPR [C4, α3(VI)-derived synthetic 30-mer peptide]
inhibition of CVI-induced proliferation [5]: strong growth inhibitory effects

GNPGQDSQERGPKGETGDLGPMGVPGRDGV [B1, α3(VI)-derived synthetic 30-mer peptide]
inhibition of CVI-induced proliferation [5]: strong growth inhibitory effects

PPGLIGEQGISGPRGSGGARGAPGERGRTG [B5, α3(VI)-derived synthetic 30-mer peptide]
inhibition of CVI-induced proliferation [5]: no or weaker inhibitory activities

RDGVGSEGRRGKKGERGFPGYPGPKGNPGE [C2, α3(VI)-derived synthetic 30-mer peptide]
inhibition of CVI-induced proliferation [5]: strong growth inhibitory effects

TGF-β [reference compound]
time after which CI expression increased [6, 9]: ~ 8 h | time of maximum CI expression [6, 9]: ~ 24 h | reduction of the expression of MMP-3 ([6]; serum-starved CFSC, 24 h, TGF-β 2 ng/ml, CVI 30 mg/l, qPCR normalized to GAPDH): ~ 70%

VNGTQGFQGCPGQRGVKGSRGFPGEKGEVG [A3, α3(VI)-derived synthetic 30-mer peptide]
inhibition of CVI-induced proliferation [5]: strong growth inhibitory effects

α1(VI): monomeric alpha 1 single chain of collagen VI isolated from human placentas
effect on 10% FBS-induced proliferation [7]: had no effect | effect on CVI-induced expression of αSMA, CI and TGF-β ([6]; serum-starved CFSC, 30 mg/l CVI plus 133 mg/l monomeric alpha chain, 24 h, n = 4): some inhibitory effects | inhibition of DNA synthesis in the presence of CVI [8]: did not show any effect
